Experiments:
human CCR2b receptor = target: T1, human CCR2b receptor (Homo sapiens, UniProt P41597); experiment: [125I]-MCP-1 binding displacement on CHO-K1-CCR2B cells (inhibiting activity on cells expressing the human CCR2b receptor); conditions: iodinated MCP-1 0.1 nM, 1 h 30 minutes at ambient temperature, read-out: Cl50 (concentration which inhibited 50% of the activity of the CCR2b receptor)
T1 construct: host or cells: CHO-K1
T1 sequence (P41597 1-360 isoform P41597-2): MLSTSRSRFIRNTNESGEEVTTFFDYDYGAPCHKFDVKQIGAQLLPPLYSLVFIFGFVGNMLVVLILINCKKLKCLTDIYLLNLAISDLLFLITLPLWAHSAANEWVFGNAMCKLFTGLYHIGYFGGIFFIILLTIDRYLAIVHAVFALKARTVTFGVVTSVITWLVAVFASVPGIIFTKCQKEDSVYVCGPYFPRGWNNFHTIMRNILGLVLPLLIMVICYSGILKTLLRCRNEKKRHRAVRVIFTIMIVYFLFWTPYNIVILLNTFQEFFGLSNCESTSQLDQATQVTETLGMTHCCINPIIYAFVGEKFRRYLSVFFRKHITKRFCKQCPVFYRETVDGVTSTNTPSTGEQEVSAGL
Method: The inhibiting activity of the compounds according to the invention was measured on cells expressing the human CCR2b receptor. The concentration of natural hMCP-1 agonist which inhibited 50% (Cl50) of the activity of the CCR2b receptor was 0.57 nM.
The following are brought into contact for 1 h 30 minutes at ambient temperature, in Millipore GF/B filter plates (ref. MAFBNOB 10 or 50): 50 μl of compound at 3×10^−5 M in the reaction buffer or cold MCP-1 range ((R & D Systems). Recombinant human MCP-1) (final concentration of compound: 10^−5 M), and 50 μl of iodinated MCP-1 ([^125 l]-MCP-1 human recombinant Bolton+Hunter labelled (Amersham)) at 0.3 nM in distilled water (final concentration of iodinated MCP-1: 0.1 nM), and 50 μl of CHO-K1-CCR2B cells (obtained from Euroscreen Brussels, Belgium) at 6×10^5 cells/ml (final concentration in the reaction buffer: […]). The filters were saturated beforehand with 100 μl of PEI at a final concentration of 0.0125% in PBS, for 72 h at 4° C., and the PEI was removed by filtration. The content of the wells was filtered and washed twice with the reaction buffer, and the filters were left to dry overnight. The following day, 20 μl/well of “Wallac Optiphase Super Mix” scintillant were dispensed. The filters were impregnated for 1 to 2 h and then counted with Trilux Iodine 125 for 1 min.
Reaction buffer=PBS buffer, […], 1 mM CaCl2, 5 mM MgCl2, 0.5% fatty acid-free BSA, adjusted to pH 7.4.

Row | Compound | IC50 (human CCR2b receptor) [nM] | melting point [°C]
1 | COc1ccc(C2CCCCC2)cc1-c1csc(NC(=O)N2CCN(C3CCOCC3)CC2)n1 [Compound No 11, 4-(tetrahydropyran-4-yl)piperazine-1-carboxylic acid [4-(5-cyclohexyl-2-methoxyphenyl)thiazol-2-yl]amide] | 20 | 226
2 | COc1ccc(C2CCCCC2)cc1-c1csc(NC(=O)N2CCN(CC3CCOC(C)(C)C3)CC2)n1 (stereo not shown) [compound 40, 4-(2,2-dimethyltetrahydropyran-4-ylmethyl)piperazine-1-carboxylic acid [4-(5-cyclohexyl-2-methoxyphenyl)thiazol-2-yl]amide] | 82 | 98
3 | COc1ccc(C2CCCCC2)cc1-c1csc(NC(=O)N2CCN(C3CCS(=O)(=O)CC3)CC2)n1 [compound 33, 4-(1,1-dioxohexahydro-1λ^6-thiopyran-4-yl)piperazine-1-carboxylic acid [4-(5-cyclohexyl-2-methoxyphenyl)thiazol-2-yl]amide] | 20 | 204
4 | COc1ccc(C2CCCCC2)cc1-c1csc(NC(=O)N2CCN(C3CCSCC3)CC2)n1 [compound 41, 4-(tetrahydrothiopyran-4-yl)piperazine-1-carboxylic acid [4-(5-cyclohexyl-2-methoxyphenyl)thiazol-2-yl]amide] | 39 | 118
5 | COc1ccc(C2CCCCC2)cc1-c1csc(NC(=O)N2CCN(C[C@@H]3CCCN(CCCCC(=O)O)C3)CC2)n1 [compound 9, 5-((R)-3-{4-[4-(5-cyclohexyl-2-methoxyphenyl)thiazol-2-ylcarbamoyl]piperazin-1-ylmethyl}piperidin-1-yl)pentanoic acid] | 4 | 153
6 | hMCP-1: human monocyte chemotactic protein, CC chemokine group, natural agonist of the CCR2b receptor [reference compound] | 0.57 | –
7 | COc1ccc(C2CCCCC2)cc1-c1csc(NC(=O)N2CCN(C(=O)[C@@H]3CCCN(C4CC4)C3)CC2)n1 [compound 22, 4-((R)-1-cyclopropylpiperidine-3-carbonyl)piperazine-1-carboxylic acid [4-(5-cyclohexyl-2-methoxyphenyl)thiazol-2-yl]amide] | 4 | –
8 | CCCCc1ccc(OCC)c(-c2csc(NC(=O)N3CCN(C[C@@H]4CCCN(C5CC5)C4)CC3)n2)c1 [compound 23, 4-((S)-1-cyclopropylpiperidin-3-ylmethyl)piperazine-1-carboxylic acid [4-(5-butyl-2-ethoxyphenyl)thiazol-2-yl]amide] | 8 | 86
9 | COc1ccc(C2CCCCC2)cc1-c1csc(NC(=O)N2CCN(CC3CCCCN3S(=O)(=O)c3cnn(C)c3C)CC2)n1 (stereo not shown) [compound 45, 4-[1-(1,5-dimethyl-1H-pyrazole-4-sulphonyl)piperidin-2-ylmethyl]piperazine-1-carboxylic acid [4-(5-cyclohexyl-2-methoxyphenyl)thiazol-2-yl]amide] | 73 | –
10 | COc1ccc(C2CCCCC2)cc1-c1csc(NC(=O)N2CCN(C[C@@H]3CCCN(S(=O)(=O)C4CC4)C3)CC2)n1 [compound 29, 4-((S)-1-cyclopropanesulphonylpiperidin-3-ylmethyl)piperazine-1-carboxylic acid [4-(5-cyclohexyl-2-methoxyphenyl)thiazol-2-yl]amide] | 50 | 114
11 | COc1ccc(C2CCCCC2)cc1-c1csc(NC(=O)N2CCN(C3CCCCC3)CC2)n1 [compound 10, 4-cyclohexylpiperazine-1-carboxylic acid [4-(5-cyclohexyl-2-methoxyphenyl)thiazol-2-yl]amide] | 53 | 110

From patent US7825112B2, “2-carbamide-4-phenylthiazole derivatives, preparation thereof and therapeutic use thereof” (sanofi-aventis, priority 2006, dated 2010)
